Experimental data from patent US20090282496A1, “Androgen Receptor Related Methods for Treating Bladder Cancer” (University of Rochester Medical Center, priority 2008, published 2009).

Columns and labels:
UMUC3 cells = experiment: Cell proliferation assay (MTT), UMUC3; format: cell-based, human; conditions: UMUC3 stable subline, without androgen treatment, vs. control-siRNA
[1] = tested on: TCC-SUP and UMUC3 stable sublines (control-siRNA, AR-siRNA); experiment: Tumor incidence (tumorigenicity) study of control-siRNA and AR-siRNA sublines in nude mice; format: in vivo, male athymic nude mouse; conditions: vs. control-siRNA cells with control treatment; treatment from tumor cell implantation; tumor positive at 40 mm3
From the text: (§1) The reporter plasmids [mouse mammary tumor virus (MMTV)-luciferase (Luc) and (ARE)4-Luc (provided by Dr. Michael L. Lu at Harvard Medical School)] as well as a retrovirus vector pMSCV/U6 (Clontech)-AR-siRNA were described in previous studies (Miyamoto et al., Int. J. Cancer, 117:866-72 (2005) and Yeh et al., J. Exp. Med. 198:1899-908 (2003)). Using SuperFect reagent (Qiagen), stable cell lines expressing the AR-siRNA were established by transfecting pMSCV/U6-AR-siRNA into Phi-NX packaging retrovirus producer cells (developed by the Nolan Lab at Stanford University). The target cells (i.e., TCC-SUP, UMUC3, and 5637) were then cultured in the presence of the viral supernatant, and infected cells were selected with puromycin (Sigma).
Bladder cancer cell lines (TCC-SUP, UMUC3, and 5637) were harvested, washed twice with PBS, and resuspended in Matrigel (BD Bioscience) at a final concentration of 1×10^7 cells/mL. Cells (1×10^6 cells in 100 μl per site) were then injected subcutaneously into the right and left flanks of 6-week-old male athymic nude mouse. Treatment (castration or sham surgery, flutamide [0.5 mg/mouse] or placebo pellet injection, and the recently developed anti-AR molecule ASC-J9 (50 mg/Kg or DMSO injection) (Ohtsu et al., J. Med. Chem., 45:5037-42 (2002)) was initiated either (1) at the same time as tumor cell injection (for tumor incidence studies, n=8 mice in each group) or (2) when the sizes of all tumors reached 40 mm^3 (for tumor progression studies, n=12 tumors from 6 mice in each group). Hormonal pellets were replaced as required (every 90 days). Tumor weight was calculated by the following formula: tumor weight (mg)=tumor length (mm)×[tumor width (mm)]^2×0.5 (Geram et al., Cancer Chemother. Rep., 3:47-52 (1972)). Using calipers, each tumor was measured twice a week until either the tumor size reached 40 mm^3 (for tumor incidence study) (Chen et al., Nat. Med., 10:33-9 (2004)), or until the tumor exceeded 10% of the animal's body weight, at which time the mouse was killed (for tumor progression study).

TCC-SUP cells = experiment: Cell proliferation assay (MTT), TCC-SUP; format: cell-based, human; conditions: TCC-SUP stable subline, without androgen treatment, vs. control-siRNA
AR = AR knockdown in stable transfectants (RT-PCR, immunoblot); format: cell-based, human; conditions: AR-siRNA-expressing TCC-SUP and UMUC3 cells vs. scrambled control-siRNA
From the text: as §1
Total RNA from mouse bladder and xenograft tumor tissues and cultured cells was extracted by the acid guanidinium-phenol-chloroform method as previously described (Miyamoto et al., Cancer, 75:2565-70 (1995)) or by using Trizol reagent (Life Science). […] Using the iCycler (Bio-Rad) and the methods previously described by Miyoshi et al., Prostate, 56:280-6 (2003), real-time quantitative PCR analysis of AR, basic fibroblast growth factor (bFGF), vascular endothelial growth factor (VEGF), and matrix metalloproteinase-9 (MMP-9) was performed on the tissue samples from mouse xenograft tumors. […]

## AR-siRNA: siRNA against AR expressed from retrovirus vector pMSCV/U6-AR-siRNA; knocks down the AR in mammalian cells (guide GGGCCCCTGGATGGATAGCTACCTCGAGGTAGCTATCCATCCAGGGGCC; listed as Homo sapiens)
UMUC3 cells
  reduction of cell proliferation by AR knockdown: 15%
[1]
  latency of tumor formation: substantially prolonged
TCC-SUP cells
  reduction of cell proliferation by AR knockdown: 20%
AR
  levels of AR mRNA and protein: substantially lower
